In patent publication US20260355168A1, “COMPOSITIONS AND METHODS FOR TREATING AND DETECTING CANCER” (CASE WESTERN RESERVE UNIVERSITY, priority 2022, published 2026):
“Also recorded” adds a separate entry of the source.

How the values were obtained:
glioma cells = experiment: Glioma cell assays combined (scratch and sphere, several cell lines); assay type: cell-based, human; conditions: 100 μM; for Effect on glioma cells, overall: multiple assays and cell lines
Protocol: FIG. 2 illustrates a schematic of a functional screening approach. Seventy-four PTPμ wedge-targeted compounds and 2 blinded DMSO samples were received from Atomwise and screened at 100 μM in scratch wound healing assays using two glioma cell lines (LN229 and U87). Selected active and control compounds were taken into secondary assays (Gli36 scratch and LN229 and Gli36 sphere formation and growth assays). Inhibitors selected as being active in primary and secondary screens were tested for effects on the survival of LN229 and Sf9 cells, and selected glioma-cell inhibitors and activators were screened for effects on Sf9-PTPμ aggregation, a highly specific test for PTPμ function.
(§1) Cells were seeded at a density of 2.7×10^4 cells per well into the internal wells of Incuyte1 Imagelock 96-well plates (Essen BioScience Inc., Ann Arbor, MI) and cultured overnight to form monolayers. Monolayers were wounded with an IncuCyte1 96-well Woundmaker Tool per the manufacturer's instructions. The outer wells were filled with PBS to buffer edge effects, and then the wounded monolayers were cultured in 100 μl of fresh media with compounds or DMSO (2×replicates at 100 μM or 1%, respectively) at 37 °C and 5% CO2. Images were captured every 4 hrs. using an Incucyte live cell imaging system equipped with the Scratch Wound Module. Scratch wound widths were calculated, per the manufacturer's instructions, at TO and at endpoint (typically T12 for LN229 and U87 cells and T8 for Gli36), which was taken as the last timepoint before wound closure. The cell migration distance was calculated from scratch widths [(T0Width−TendpointWidth)/2] and normalized to the average distance migrated by the DMSO controls. Values are presented as average percentages±standard errors of the means (s.e.m.). The majority of compounds were screened with an n of two, but the n for priority hits ranges from 2-6.
(§2) Cells were seeded at a density of 7500 cells per well into the internal wells of 96-well plates coated with 0.75% (wt/vol) PVA as previously described. Compounds were added (2×replicates per treatment) at the indicated final concentrations, and control wells were treated with matching concentrations of DMSO. The external wells of the plates were filled with PBS to buffer against edge effects, and the cells were incubated at 37 °C and 5% CO2 for 7 days. A Leica CTR6500 microscope fitted with an automated stage was used to capture brightfield images on day 1 and day 7, and sphere footprint areas were measured using Image J (v1.52a http://imagej.nih.gov/ij) as previously described. To quantify the effects of the compounds on day 1, the footprint areas of the treated wells were normalized to the average area of the matched DMSO control wells. To quantify the effects of the compounds on sphere growth, the change in the sphere footprint areas was calculated ([…]) and then normalized to the average size change of the matched DMSO samples. All values are presented as average percentages±s.e.m.

PTPμ = PTPμ (Homo sapiens, UniProt P28827); experiment: PTPμ-dependent Sf9 aggregation assay; assay type: cell-based; conditions: 100 μM; 20 min pretreatment; in words
Chain of PTPμ (P28827 21-1452): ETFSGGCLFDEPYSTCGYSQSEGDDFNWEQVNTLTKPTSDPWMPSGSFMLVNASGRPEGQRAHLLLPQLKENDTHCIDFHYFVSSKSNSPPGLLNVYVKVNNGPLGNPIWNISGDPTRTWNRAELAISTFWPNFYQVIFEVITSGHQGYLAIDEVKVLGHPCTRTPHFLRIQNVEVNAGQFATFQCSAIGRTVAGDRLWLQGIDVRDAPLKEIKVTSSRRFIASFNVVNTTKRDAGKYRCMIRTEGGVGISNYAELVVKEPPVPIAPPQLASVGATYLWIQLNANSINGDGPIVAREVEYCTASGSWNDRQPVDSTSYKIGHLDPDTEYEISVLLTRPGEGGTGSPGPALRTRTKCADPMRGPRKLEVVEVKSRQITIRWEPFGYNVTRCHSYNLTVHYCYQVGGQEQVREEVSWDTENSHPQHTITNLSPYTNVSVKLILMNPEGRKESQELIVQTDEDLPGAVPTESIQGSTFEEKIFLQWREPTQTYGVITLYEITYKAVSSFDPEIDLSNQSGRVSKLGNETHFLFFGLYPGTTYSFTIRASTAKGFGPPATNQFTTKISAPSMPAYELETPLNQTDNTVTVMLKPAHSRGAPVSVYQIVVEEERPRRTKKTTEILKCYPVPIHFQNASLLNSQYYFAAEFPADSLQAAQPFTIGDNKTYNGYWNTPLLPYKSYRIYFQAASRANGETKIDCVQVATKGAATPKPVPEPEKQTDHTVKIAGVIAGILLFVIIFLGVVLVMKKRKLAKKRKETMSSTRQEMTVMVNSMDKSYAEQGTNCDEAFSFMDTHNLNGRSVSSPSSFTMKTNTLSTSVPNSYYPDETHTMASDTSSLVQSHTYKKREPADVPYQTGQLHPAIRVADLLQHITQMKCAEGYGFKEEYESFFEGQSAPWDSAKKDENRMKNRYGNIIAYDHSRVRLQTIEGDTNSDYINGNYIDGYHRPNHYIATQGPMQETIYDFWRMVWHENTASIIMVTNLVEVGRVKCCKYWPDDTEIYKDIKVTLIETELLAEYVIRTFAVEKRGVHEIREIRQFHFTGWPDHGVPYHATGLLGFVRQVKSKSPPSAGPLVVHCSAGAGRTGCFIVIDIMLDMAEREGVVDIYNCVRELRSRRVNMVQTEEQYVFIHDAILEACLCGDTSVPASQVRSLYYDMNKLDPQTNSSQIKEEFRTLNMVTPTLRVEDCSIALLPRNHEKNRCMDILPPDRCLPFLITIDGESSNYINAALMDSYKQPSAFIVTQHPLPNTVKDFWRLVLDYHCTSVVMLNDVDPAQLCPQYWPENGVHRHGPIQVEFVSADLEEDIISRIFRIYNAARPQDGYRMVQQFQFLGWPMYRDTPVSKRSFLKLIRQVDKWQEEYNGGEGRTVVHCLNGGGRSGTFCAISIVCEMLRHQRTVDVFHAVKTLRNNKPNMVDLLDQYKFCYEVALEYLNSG

LN229 cells [1] = experiment: LN229 scratch wound healing assay; assay type: cell-based, human; conditions: for activity at 100 µM: Homo sapiens, LN-229, normalized to DMSO controls, read-out: LN229 scratch wound closure relative to DMSO controls
Description: FIGS. 3(A-D) illustrate a histogram and images of the LN229 scratch wound assays. A. Histogram showing the effects of all soluble wedge-targeted compounds on LN229 scratch wound closure. Cell movement into the scratches was quantified from scratch wound widths at the start and end of the assay and normalized to the average movement of cells in the unblinded DMSO control samples. Data is presented as average percentages±standard error of the means (s.e.m.), and compound bar codes are shown on the x-axis. The majority of compounds were screened with an n=2. Some priority compounds were screened with 3-6 replicates. Representative endpoint images of samples treated with DMSO (B) and two priority inhibitors (C and D) are shown. The relative migration distances for each example are indicated.
as §1
Scratch assays measure the ability of cells to migrate into a wound and close it creating a monolayer.

U87 cells = experiment: U87 scratch wound healing assay; assay type: cell-based, human; conditions: 100 μM
Description: FIGS. 11(A-D) illustrate a histogram and images of the results of the U87 scratch wound assays. A. Histogram showing the effects of all soluble wedge pocket-targeting compounds on U87 scratch wound closure. Cell movement into the scratches was quantified from scratch wound widths at the start and end of the assay and normalized to the average movement of cells in the unblinded DMSO control samples. Data is presented as average percentages±s.e.m., and compound bar codes are shown on the x-axis. Most compounds were screened with an n of 2-4. Representative images of scratch wounds treated with DMSO (A) or two priority inhibitors (C and D) are shown.
as §1

LN229 cells [2] = experiment: LN229 glioma sphere formation and growth assay; assay type: cell-based, human; conditions: 100 μM, in words; for Effect on LN229 sphere formation: day 1; for Effect on LN229 sphere growth: day 7
Protocol: FIGS. 5(A-E) illustrate a histogram and images showing the results of the LN229 sphere formation and growth assays. Selected inhibitors, activators, and control compounds identified in LN229 and/or U87 scratch wound closure assays were retested at 100 μM in a secondary assay for glioma cell (LN229) sphere formation and growth. A. Histogram showing the effects of the indicated compounds on sphere formation. On day 1, sphere footprint areas were determined and normalized to the average footprint area of the unblinded vehicle-treated controls. On day 1, a larger footprint area indicates inhibition of aggregation. B. Histogram showing the effects of the indicated compounds on sphere growth. On day 7, the changes in sphere footprint areas were calculated and normalized to the average size change of the unblinded vehicle-treated controls. On day 7, a smaller value indicates reduced growth. […] Data is presented as percentages±s.e.m. of 2-4 replicates. Representative images of samples treated with DMSO (C) and two priority inhibitors (D and E) are shown. Relative day 1 footprint areas and day 7 growth measurements are indicated for each example.
FIGS. 15(A-D) illustrate a histogram and images of titration of selected compounds on LN229 sphere formation and growth. LN229 cells were plated onto non-adherent surfaces and treated with the indicated compounds at 100, 50, and 25 μM. A. On day 1, sphere footprint areas were determined and normalized to the average footprint area of the unblinded vehicle-treated controls. On day 1, a larger foot-print area indicates inhibition of aggregation. B. On day 7, the changes in sphere footprint areas were calculated and normalized to the average size change of the unblinded vehicle-treated controls. On day 7, a smaller value indicates reduced growth. […] Data is presented as percentages±s.e.m. The initial test at 100 μM and the follow-up at that dose with titration is shown. Each bar is the average of 2 replicates. Representative day 1 (C) and day 7 (D) images of samples treated with two priority inhibitors are shown. Relative day 1 sphere footprint areas and day 7 growth for each example are indicated.
as §2
We tested the effects of twenty-four compounds (11 flagged as inhibitory, 4 as stimulatory, and nine as inert in the initial scratch-wound screen, FIG. 2) on the ability of LN229 cells to mediate cell-cell adhesion and grow in 3D culture on non-adherent surfaces. To quantify sphere formation (FIG. 5A), the footprint areas of aggregates were measured on day 1 and normalized to that of the DMSO control. At this time point, a larger footprint size (>120%) indicates inhibition, i.e., the failure of cells to form a compact aggregate. To quantify sphere growth (FIG. 5B), we calculated the percent changes in sphere footprint areas between day 1 and day 7 and normalized them to that of the DMSO controls.

LN229 cells [3] = experiment: Helix Blue staining of LN229 spheres (cell survival); assay type: cell-based, human; conditions: 100 μM, 24 h, qualitative
Protocol: (§3) FIG. 17 illustrates images showing the effects of prioritized inhibitors on cell survival. LN229 cells were plated onto non-adherent surfaces and cultured in the presence of the indicated compounds (100 μM). On day 1, spheres were stained with Helix Blue to detect dying cells. Parental Sf9 cells (which lack PTPμ) plated onto tissue culture plastic were also grown in the presence of the indicated compounds and, on day 1, stained with Helix Blue. Three compounds appeared to cause a qualitative increase in staining in LN229 spheres. No compound was toxic to Sf9 cells.
(§4) LN229 cells, plated onto non-adherent surfaces as described above, and parental Sf9 cells (without PTPμ), seeded into 96-well flat bottom tissue culture plates, were treated for 24 h with the indicated compounds (100 μM). The cells and spheres were then treated with 5.5 μM Helix Blue (Biolegend, San Diego, CA) and imaged at 10× on a Leica CTR6500 fluorescence microscope.
(§5) The seven penetrant inhibitors were tested to see if they affected the survival of LN229 spheres and parental Sf9 cells (which lack PTPμ) (FIG. 17).

parental Sf9 cells = experiment: Helix Blue staining of parental Sf9 cells (cell survival); assay type: cell-based, insect; conditions: 100 μM, 24 h, cells lack PTPμ
Protocol: as §3, §4, §5

Row | SMILES | Effect on glioma cells, overall (glioma cells) | Effect on PTPμ-dependent Sf9 aggregation / adhesion (PTPμ) | activity at 100 µM (LN229 cells [1]) [%] | Effect on glioma cell migration (glioma cells; scratch assays) | Effect on U87 cell morphology in scratch assay (U87 cells) | Effect on LN229 sphere formation (LN229 cells [2]) | Effect on LN229 sphere growth (LN229 cells [2]) | Effect on LN229 cell survival / cell death (LN229 cells [3]) | Effect on parental Sf9 cell survival (parental Sf9 cells) | Effect on LN229 cell morphology in scratch assay (LN229 cells [1]; 100 μM)
1 | Cc1cccc(-c2ccc3c(c2)C(=O)N2CCC(NC(=O)COCC(=O)O)C2C(=O)N3)c1C (centres unmarked) [Compound 247685429] | did not affect glioma cells | able to inhibit PTPμ-dependent adhesion; also recorded: able to inhibit PTPμ-mediated aggregation |  |  |  |  |  |  |  | 
2 | CCC1(CC)NC(=O)N(CC(=O)Nc2ccc(Oc3ccccc3)cc2)C1=O [Compound 247682206] | highly penetrant inhibitors; also recorded: able to inhibit glioma cells | PTPμ-dependent adhesion; also recorded: affect PTPμ-mediated aggregation | < 60 | able to inhibit glioma cell migration | pile-up of U87 cells at the edge of the scratch wound | delayed sphere formation | inhibited growth |  |  | 
3 | CC(C)COc1ccc(C(=O)N2CCNC(=O)C2CC(=O)OC2CCCCC2)cc1 (centres unmarked) [Compound 247682240] | highly penetrant inhibitors | not shown to affect PTPμ-mediated aggregation | < 60 |  | pile-up of U87 cells at the edge of the scratch wound | delayed sphere formation | inhibited growth |  |  | 
4 | COc1ccccc1CNC(=O)CC(NC(N)=O)c1cccc(Oc2ccccc2)c1 (centres unmarked) [Compound 247679045] | highly penetrant inhibitors in glioma cell assays | not shown to affect PTPμ-mediated aggregation; also recorded: did not affect PTPμ-dependent adhesion | < 60 |  |  | completely blocked sphere formation |  | caused a qualitative increase in LN229-cell death | did not affect parental Sf9 cells | 
5 | O=C1NC2(CCCC2)C(=O)N1CC(=O)N(Cc1cccs1)c1ccc2c(c1)OCCO2 [Compound 247679515] | highly penetrant inhibitors in glioma cell assays | not shown to affect PTPμ-mediated aggregation; also recorded: did not affect PTPμ-dependent adhesion | < 60 |  |  | completely blocked sphere formation |  |  |  | rounding
